Experimental data published in ChEMBL document CHEMBL1221330, “N-tetrahydrothiochromenoisoxazole-1-carboxamides as selective antagonists of cloned human 5-HT2B” (Bioorg Med Chem Lett, 2010).
Values belong to the compound of their own block, whether it stands above or below them.

What was measured:
[1] = target: T1, 5-hydroxytryptamine receptor 2A (Homo sapiens, UniProt P28223); assay: Displacement of [3H]Ketanserin from human 5HT2A receptor at 10 uM
[2] = target: T2, 5-hydroxytryptamine receptor 2B (Homo sapiens, UniProt P41595); assay: Displacement of [3H]LSD from human 5HT2B receptor at 10 uM
T2 sequence (P41595 whole entry): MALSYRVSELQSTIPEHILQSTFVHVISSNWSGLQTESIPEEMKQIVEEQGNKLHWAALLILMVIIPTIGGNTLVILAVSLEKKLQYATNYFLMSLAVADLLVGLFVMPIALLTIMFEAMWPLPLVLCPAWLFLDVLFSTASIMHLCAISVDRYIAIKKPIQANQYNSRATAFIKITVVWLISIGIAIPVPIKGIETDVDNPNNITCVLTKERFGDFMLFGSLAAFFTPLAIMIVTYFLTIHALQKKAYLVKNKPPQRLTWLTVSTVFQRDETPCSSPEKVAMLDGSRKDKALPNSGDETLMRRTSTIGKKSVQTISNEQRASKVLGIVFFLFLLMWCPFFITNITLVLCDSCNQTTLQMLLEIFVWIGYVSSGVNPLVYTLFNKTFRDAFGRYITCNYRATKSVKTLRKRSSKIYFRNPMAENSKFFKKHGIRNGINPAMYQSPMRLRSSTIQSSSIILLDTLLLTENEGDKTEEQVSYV

[3] = target: T3, 5-hydroxytryptamine receptor 2C (Homo sapiens) (UniProt P28335); assay: Displacement of [3H]Mesulergine from human 5HT2C receptor at 10 uM
T3 sequence (whole entry): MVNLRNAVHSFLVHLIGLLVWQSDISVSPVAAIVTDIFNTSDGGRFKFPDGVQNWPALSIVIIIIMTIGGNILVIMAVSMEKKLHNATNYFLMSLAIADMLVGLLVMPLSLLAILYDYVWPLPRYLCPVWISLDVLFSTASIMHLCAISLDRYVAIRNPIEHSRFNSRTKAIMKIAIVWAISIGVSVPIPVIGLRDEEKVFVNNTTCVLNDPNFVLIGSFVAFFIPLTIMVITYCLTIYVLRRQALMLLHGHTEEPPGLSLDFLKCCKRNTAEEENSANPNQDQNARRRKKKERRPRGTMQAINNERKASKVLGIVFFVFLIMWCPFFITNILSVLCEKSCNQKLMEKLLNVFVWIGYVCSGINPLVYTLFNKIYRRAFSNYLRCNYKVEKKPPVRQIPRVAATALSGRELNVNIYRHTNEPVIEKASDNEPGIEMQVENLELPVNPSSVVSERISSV

[4] = target: T1, 5-hydroxytryptamine receptor 2A; assay: Displacement of [3H]Ketanserin from human 5HT2A receptor
[5] = target: T2, 5-hydroxytryptamine receptor 2B; assay: Displacement of [3H]LSD from human 5HT2B receptor
[6] = target: T4, 5-hydroxytryptamine receptor 2C (Homo sapiens, UniProt P28335); assay: Displacement of [3H]Mesulergine from human 5HT2C receptor
T4 sequence (P28335 whole entry): T3 sequence (whole entry)

[7] = target: 5-hydroxytryptamine receptor 1A (Homo sapiens) (UniProt P08908); assay: Displacement of [3H]8-OH-DPAT from human 5HT1A receptor at 10 uM
[8] = target: 5-hydroxytryptamine receptor 1B (Homo sapiens) (UniProt P28222); assay: Displacement of [3H][…] from human 5HT1B receptor at 10 uM
[9] = target: 5-hydroxytryptamine receptor 1D (Homo sapiens) (UniProt P28221); assay: Displacement of [3H][…] from human 5HT1D receptor at 10 uM
[10] = target: 5-hydroxytryptamine receptor 1E (Homo sapiens) (UniProt P28566); assay: Displacement of [3H]5-HT from human 5HT1E receptor at 10 uM
[11] = target: 5-hydroxytryptamine receptor 3A (Homo sapiens) (UniProt P46098); assay: Displacement of [3H]LY278584 from human 5HT3 receptor at 10 uM
[12] = target: 5-hydroxytryptamine receptor 5A (Homo sapiens) (UniProt P47898); assay: Displacement of [3H]LSD from human 5HT5A receptor at 10 uM
[13] = target: 5-hydroxytryptamine receptor 7 (Homo sapiens) (UniProt P34969); assay: Displacement of [3H]LSD from human 5HT7 receptor at 10 uM
[14] = target: Alpha-1A adrenergic receptor (Homo sapiens) (UniProt P35348); assay: Displacement of [3H]Prazosin from human adrenergic alpha1A receptor at 10 uM
Sequence of Alpha-1A adrenergic receptor (Homo sapiens) (P35348 whole entry): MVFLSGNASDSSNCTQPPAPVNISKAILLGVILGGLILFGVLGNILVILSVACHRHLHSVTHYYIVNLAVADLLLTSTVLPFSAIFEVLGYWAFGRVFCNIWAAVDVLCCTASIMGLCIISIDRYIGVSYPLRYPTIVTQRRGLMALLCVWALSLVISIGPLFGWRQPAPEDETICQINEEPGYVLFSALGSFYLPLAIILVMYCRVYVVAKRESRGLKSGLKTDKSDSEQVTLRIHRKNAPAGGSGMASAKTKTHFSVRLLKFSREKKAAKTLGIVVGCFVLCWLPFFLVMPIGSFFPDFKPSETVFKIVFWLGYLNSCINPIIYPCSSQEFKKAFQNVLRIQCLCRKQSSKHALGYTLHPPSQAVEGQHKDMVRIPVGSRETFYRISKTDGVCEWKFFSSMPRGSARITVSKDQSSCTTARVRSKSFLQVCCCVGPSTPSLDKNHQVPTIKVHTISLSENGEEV

[15] = target: Beta-1 adrenergic receptor (Homo sapiens) (UniProt P08588); assay: Displacement of [125I]Iodopindolol from human adrenergic beta-1 receptor at 10 uM
[16] = target: Beta-2 adrenergic receptor (Homo sapiens) (UniProt P07550); assay: Displacement of [125I]Iodopindolol from human adrenergic beta2 receptor at 10 uM
[17] = target: Beta-3 adrenergic receptor (Homo sapiens) (UniProt P13945); assay: Displacement of [125I]Iodopindolol from human adrenergic beta3 receptor at 10 uM
Sequence of Beta-3 adrenergic receptor (Homo sapiens) (P13945 whole entry, looked up): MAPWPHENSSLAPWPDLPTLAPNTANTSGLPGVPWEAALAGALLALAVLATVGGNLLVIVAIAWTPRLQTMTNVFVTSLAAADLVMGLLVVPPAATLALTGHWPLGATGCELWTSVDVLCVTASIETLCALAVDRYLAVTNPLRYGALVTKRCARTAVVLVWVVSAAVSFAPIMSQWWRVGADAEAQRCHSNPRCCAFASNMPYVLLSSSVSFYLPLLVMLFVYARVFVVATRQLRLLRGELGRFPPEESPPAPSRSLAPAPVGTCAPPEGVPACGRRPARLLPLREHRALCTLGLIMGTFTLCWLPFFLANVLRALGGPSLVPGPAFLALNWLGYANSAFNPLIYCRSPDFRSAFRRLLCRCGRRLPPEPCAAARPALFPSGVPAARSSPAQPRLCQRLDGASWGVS

[18] = target: D(1A) dopamine receptor (Homo sapiens) (UniProt P21728); assay: Displacement of [3H][…] from human dopamine D1 receptor at 10 uM
[19] = target: D(2) dopamine receptor (Homo sapiens) (UniProt P14416); assay: Displacement of [3H]N-methylspiperone from human dopamine D2 receptor at 10 uM
[20] = target: D(3) dopamine receptor (Homo sapiens) (UniProt P35462); assay: Displacement of [3H]N-methylspiperone from human dopamine D3 receptor at 10 uM
[21] = target: D(4) dopamine receptor (Homo sapiens) (UniProt P21917); assay: Displacement of [3H]N-methylspiperone from human dopamine D4 receptor at 10 uM
Sequence of D(4) dopamine receptor (Homo sapiens) (P21917 whole entry): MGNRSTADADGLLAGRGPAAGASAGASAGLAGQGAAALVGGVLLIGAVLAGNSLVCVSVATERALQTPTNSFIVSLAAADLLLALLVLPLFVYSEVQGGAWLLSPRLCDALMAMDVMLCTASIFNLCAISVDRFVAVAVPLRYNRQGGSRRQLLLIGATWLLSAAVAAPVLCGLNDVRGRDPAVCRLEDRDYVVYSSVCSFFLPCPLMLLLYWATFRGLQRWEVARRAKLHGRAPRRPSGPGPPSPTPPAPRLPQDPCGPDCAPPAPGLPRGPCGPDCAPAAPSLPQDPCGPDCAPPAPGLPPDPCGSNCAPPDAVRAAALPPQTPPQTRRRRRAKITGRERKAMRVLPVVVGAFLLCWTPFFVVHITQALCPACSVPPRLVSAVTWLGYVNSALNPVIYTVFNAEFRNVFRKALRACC

[22] = target: T5, Sodium-dependent dopamine transporter (Homo sapiens, UniProt Q01959); assay: Displacement of [3H][…] from human DAT at 10 uM
T5 sequence (Q01959 whole entry): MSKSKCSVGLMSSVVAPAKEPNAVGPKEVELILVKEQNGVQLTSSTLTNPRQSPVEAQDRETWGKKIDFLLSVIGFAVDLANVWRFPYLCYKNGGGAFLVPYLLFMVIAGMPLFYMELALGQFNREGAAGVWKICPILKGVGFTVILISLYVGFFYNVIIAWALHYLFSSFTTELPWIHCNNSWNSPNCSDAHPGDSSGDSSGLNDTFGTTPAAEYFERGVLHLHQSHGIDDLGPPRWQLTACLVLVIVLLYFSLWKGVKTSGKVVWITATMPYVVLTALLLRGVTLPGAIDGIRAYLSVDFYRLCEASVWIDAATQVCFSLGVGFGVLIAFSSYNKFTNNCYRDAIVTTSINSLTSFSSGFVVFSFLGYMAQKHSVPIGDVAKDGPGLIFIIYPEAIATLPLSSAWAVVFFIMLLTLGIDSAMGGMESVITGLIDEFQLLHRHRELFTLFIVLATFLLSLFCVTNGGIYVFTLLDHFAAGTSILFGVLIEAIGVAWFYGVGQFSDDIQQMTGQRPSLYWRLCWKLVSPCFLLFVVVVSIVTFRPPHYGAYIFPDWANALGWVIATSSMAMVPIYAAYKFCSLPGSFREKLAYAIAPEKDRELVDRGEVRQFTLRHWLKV

[23] = target: Delta-type opioid receptor (Homo sapiens) (UniProt P41143); assay: Displacement of [3H]DADLE from human delta opioid receptor at 10 uM
[24] = target: Histamine H1 receptor (Homo sapiens) (UniProt P35367); assay: Displacement of [3H]Pyrilamine from human histamine H1 receptor at 10 uM
[25] = target: Histamine H2 receptor (Homo sapiens) (UniProt P25021); assay: Displacement of [3H]Tiotidine from human histamine H2 receptor at 10 uM
Sequence of Histamine H2 receptor (Homo sapiens) (P25021 whole entry): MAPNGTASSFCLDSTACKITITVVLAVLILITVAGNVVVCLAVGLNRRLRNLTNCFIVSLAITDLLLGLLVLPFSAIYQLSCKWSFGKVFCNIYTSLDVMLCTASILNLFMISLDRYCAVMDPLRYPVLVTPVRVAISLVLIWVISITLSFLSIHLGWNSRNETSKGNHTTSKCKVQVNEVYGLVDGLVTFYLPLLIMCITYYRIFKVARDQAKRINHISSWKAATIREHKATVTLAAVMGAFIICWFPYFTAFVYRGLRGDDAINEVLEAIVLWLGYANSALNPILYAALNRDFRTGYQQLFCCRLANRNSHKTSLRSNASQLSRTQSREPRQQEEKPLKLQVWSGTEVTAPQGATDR

[26] = target: Histamine H3 receptor (Homo sapiens) (UniProt Q9Y5N1); assay: Displacement of [3H]alpha-methylhistamine from human histamine H3 receptor at 10 uM
[27] = target: Histamine H4 receptor (Homo sapiens) (UniProt Q9H3N8); assay: Displacement of [3H]Histamine from human histamine H4 receptor at 10 uM
[28] = target: Kappa-type opioid receptor (Homo sapiens) (UniProt P41145); assay: Displacement of [3H]U69593 from human kappa opioid receptor at 10 uM
[29] = target: Muscarinic acetylcholine receptor M1 (Homo sapiens) (UniProt P11229); assay: Displacement of [3H]QNB from human muscarinic M1 receptor at 10 uM
[30] = target: Muscarinic acetylcholine receptor M2 (Homo sapiens) (UniProt P08172); assay: Displacement of [3H]QNB from human muscarinic M2 receptor at 10 uM
[31] = target: Muscarinic acetylcholine receptor M3 (Homo sapiens) (UniProt P20309); assay: Displacement of [3H]QNB from human muscarinic M3 receptor at 10 uM
[32] = target: Muscarinic acetylcholine receptor M4 (Homo sapiens) (UniProt P08173); assay: Displacement of [3H]QNB from human muscarinic M4 receptor at 10 uM
Sequence of Muscarinic acetylcholine receptor M4 (Homo sapiens) (P08173 whole entry): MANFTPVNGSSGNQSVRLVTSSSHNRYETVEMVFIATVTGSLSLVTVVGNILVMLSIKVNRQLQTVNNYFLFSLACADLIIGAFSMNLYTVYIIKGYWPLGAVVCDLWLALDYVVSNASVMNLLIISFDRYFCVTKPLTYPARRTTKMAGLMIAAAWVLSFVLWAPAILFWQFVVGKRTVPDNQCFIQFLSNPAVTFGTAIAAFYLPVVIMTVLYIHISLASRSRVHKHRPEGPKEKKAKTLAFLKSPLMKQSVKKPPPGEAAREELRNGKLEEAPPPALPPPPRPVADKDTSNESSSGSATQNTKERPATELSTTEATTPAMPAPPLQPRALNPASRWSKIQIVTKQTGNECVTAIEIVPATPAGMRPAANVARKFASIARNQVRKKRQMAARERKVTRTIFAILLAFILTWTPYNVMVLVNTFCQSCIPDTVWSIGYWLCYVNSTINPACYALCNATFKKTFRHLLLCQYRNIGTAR

[33] = target: Muscarinic acetylcholine receptor M5 (Homo sapiens) (UniProt P08912); assay: Displacement of [3H]QNB from human muscarinic M5 receptor at 10 uM
[34] = target: T6, Sodium-dependent noradrenaline transporter (Homo sapiens, UniProt P23975); assay: Displacement of [3H]Nisoxetine from human NET at 10 uM
T6 sequence (P23975 whole entry): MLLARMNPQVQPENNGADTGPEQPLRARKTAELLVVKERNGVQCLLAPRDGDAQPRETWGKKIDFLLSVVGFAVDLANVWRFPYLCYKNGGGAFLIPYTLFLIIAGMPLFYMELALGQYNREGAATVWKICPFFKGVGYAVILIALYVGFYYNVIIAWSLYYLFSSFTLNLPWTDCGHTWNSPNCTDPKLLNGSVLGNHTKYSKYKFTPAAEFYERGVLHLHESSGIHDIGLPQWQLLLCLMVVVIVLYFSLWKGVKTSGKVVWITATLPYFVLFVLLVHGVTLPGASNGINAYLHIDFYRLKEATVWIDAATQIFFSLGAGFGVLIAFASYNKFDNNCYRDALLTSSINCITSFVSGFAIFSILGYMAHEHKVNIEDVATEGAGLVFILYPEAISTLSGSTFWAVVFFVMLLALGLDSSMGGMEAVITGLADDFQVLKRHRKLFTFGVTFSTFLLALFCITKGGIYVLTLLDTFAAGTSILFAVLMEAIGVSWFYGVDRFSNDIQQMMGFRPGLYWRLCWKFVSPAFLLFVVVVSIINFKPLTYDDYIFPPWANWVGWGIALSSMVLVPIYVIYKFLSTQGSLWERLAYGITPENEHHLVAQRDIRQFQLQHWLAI

[35] = target: T7, Sodium-dependent serotonin transporter (Homo sapiens, UniProt P31645); assay: Displacement of [3H]Citalopram from human SERT at 10 uM
Target sequence in this assay (P31645 whole entry, looked up): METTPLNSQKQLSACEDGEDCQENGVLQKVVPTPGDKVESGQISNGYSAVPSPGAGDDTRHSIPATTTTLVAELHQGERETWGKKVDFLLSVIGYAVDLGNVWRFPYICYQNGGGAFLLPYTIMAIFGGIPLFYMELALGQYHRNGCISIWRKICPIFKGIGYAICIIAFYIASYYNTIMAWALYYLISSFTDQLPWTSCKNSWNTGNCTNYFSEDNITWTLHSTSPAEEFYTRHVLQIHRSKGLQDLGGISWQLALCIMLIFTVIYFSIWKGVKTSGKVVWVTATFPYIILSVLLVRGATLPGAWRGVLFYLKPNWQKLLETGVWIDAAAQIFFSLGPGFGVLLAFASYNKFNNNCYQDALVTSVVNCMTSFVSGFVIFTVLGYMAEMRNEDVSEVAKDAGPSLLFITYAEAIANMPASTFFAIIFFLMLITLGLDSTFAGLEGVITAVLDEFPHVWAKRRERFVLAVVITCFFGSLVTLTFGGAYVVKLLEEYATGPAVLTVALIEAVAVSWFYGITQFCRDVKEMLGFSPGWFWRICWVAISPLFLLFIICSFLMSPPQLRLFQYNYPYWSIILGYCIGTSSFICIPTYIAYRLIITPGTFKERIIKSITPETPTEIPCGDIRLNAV

[36] = target: Sigma non-opioid intracellular receptor 1 (Homo sapiens) (UniProt Q99720); assay: Displacement of [3H]Pentazocine from human sigma 1 receptor at 10 uM
Homo sapiens = species: Homo sapiens; assay: Displacement of [3H]DTG from human sigma 2 receptor at 10 uM
[37] = target: T5, Sodium-dependent dopamine transporter; assay: Displacement of [3H][…] from human DAT
[38] = target: T6, Sodium-dependent noradrenaline transporter; assay: Displacement of [3H]Nisoxetine from human NET
[39] = target: T7, Sodium-dependent serotonin transporter; assay: Displacement of [3H]Citalopram from human SERT
[40] = target: T2, 5-hydroxytryptamine receptor 2B; assay: Agonist activity at human 5HT2B receptor assessed as 5HT-induced calcium mobilization at 10 uM by FLIPR assay relative to 5HT; format: functional
[41] = target: T2, 5-hydroxytryptamine receptor 2B; assay: Antagonist activity at human 5HT2B receptor assessed as inhibition of 10633-induced calcium mobilization by FLIPR assay; format: functional
[42] = target: T2, 5-hydroxytryptamine receptor 2B; assay: Agonist activity at human 5HT2B receptor assessed as 10633-induced calcium mobilization by FLIPR assay; format: functional
[43] = target: T4, 5-hydroxytryptamine receptor 2C; assay: Agonist activity at human 5HT2C receptor assessed as 5HT-induced calcium mobilization by FLIPR assay; format: functional
[44] = target: T4, 5-hydroxytryptamine receptor 2C; assay: Agonist activity at human 5HT2C receptor assessed as 10633-induced calcium mobilization by FLIPR assay; format: functional
[45] = target: T2, 5-hydroxytryptamine receptor 2B; assay: Agonist activity at human 5HT2B receptor assessed as 5HT-induced calcium mobilization by FLIPR assay; format: functional
[46] = target: Mu-type opioid receptor (Homo sapiens) (UniProt P35372); assay: Displacement of [3H]DAMGO from human mu opioid receptor at 10 uM

T1 sequence (P28223 whole entry): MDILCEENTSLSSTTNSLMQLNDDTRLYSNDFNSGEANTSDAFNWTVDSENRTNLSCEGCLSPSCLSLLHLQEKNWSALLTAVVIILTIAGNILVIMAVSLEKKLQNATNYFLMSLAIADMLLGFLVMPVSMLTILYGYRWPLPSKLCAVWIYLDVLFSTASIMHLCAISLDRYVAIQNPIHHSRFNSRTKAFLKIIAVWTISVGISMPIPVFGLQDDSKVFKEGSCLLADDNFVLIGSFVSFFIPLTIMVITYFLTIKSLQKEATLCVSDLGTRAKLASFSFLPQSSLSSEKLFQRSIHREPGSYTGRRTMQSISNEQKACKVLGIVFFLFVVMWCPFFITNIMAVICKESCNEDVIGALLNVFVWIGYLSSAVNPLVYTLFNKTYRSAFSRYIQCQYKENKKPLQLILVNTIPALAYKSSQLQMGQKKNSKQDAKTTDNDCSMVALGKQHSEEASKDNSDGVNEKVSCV

Structure (SMILES): CCCNC(=O)N1OCC2COc3ccccc3C21 (stereo unspecified)
inhibition [1]: 2.4%
inhibition [2]: 53.5%
inhibition [3]: 14.7%
Ki [4]: > 10 µM
Ki [5]: 6.6 µM
Ki [6]: > 10 µM

Structure (SMILES): CC(C)(C)NC(=O)N1OCC2COc3ccccc3C21 (stereo unspecified)
inhibition [1]: 12%
inhibition [2]: 43%
inhibition [3]: 25.9%
Ki [4]: > 10 µM
Ki [5]: > 10 µM
Ki [6]: > 10 µM

Structure (SMILES): Cc1ccccc1NC(=O)N1OCC2COc3ccccc3C21 (stereo unspecified)
inhibition [1]: 12.8%
inhibition [2]: 52.2%
inhibition [3]: 40.2%
Ki [4]: > 10 µM
Ki [5]: 4 µM
Ki [6]: > 10 µM

Structure (SMILES): CCCCNC(=O)N1OCC2COc3ccccc3C21 (stereo unspecified)
inhibition [1]: 0.8%
inhibition [2]: 35.4%
inhibition [3]: 23.4%
Ki [4]: > 10 µM
Ki [5]: > 10 µM
Ki [6]: > 10 µM

Structure (SMILES): O=C(Nc1ccccc1)N1OCC2CSc3ccc(F)cc3C21 (stereo unspecified)
inhibition [1]: 33.6%
inhibition [2]: 95.3%
inhibition [3]: 61.2%
Ki [4]: > 10 µM
Ki [5]: 0.223 µM
Ki [6]: 5.17 µM

Structure (SMILES): CC(C)NC(=O)N1OCC2COc3ccccc3C21 (stereo unspecified)
inhibition [1]: -0.2%
inhibition [2]: 14.8%
inhibition [3]: 28.9%
Ki [4]: > 10 µM
Ki [5]: > 10 µM
Ki [6]: > 10 µM

Structure (SMILES): O=C(Nc1ccccc1)N1OCC2COc3ccccc3C21 (stereo unspecified)
inhibition [1]: 11%
inhibition [2]: 71.6%
inhibition [3]: 56.7%
Ki [4]: > 10 µM
Ki [5]: 1.61 µM
Ki [6]: > 10 µM

More lines, now with the values ahead:

inhibition [1]: 5.5%
inhibition [2]: 75.5%
inhibition [3]: 28.1%
Ki [4]: > 10 µM
Ki [5]: 1.77 µM
Ki [6]: > 10 µM
Structure (SMILES): O=C(NC1CCCCC1)N1OCC2COc3ccccc3C21 (stereo unspecified)

inhibition [1]: 6.2%
inhibition [2]: 102%
inhibition [3]: 30%
Ki [4]: > 10 µM
Ki [5]: 0.042 µM
Ki [6]: > 10 µM
inhibition [7]: 36.9%
inhibition [8]: 1.3%
inhibition [9]: 4.5%
inhibition [10]: -7.8%
inhibition [11]: -8.7%
inhibition [12]: 46.6%
inhibition [13]: 27.1%
inhibition [14]: 37.8%
inhibition [15]: 2.4%
inhibition [16]: 3.7%
inhibition [17]: 7.1%
inhibition [18]: 14%
inhibition [19]: 8.1%
inhibition [20]: 3.2%
inhibition [21]: 12%
inhibition [22]: 66.3%
inhibition [23]: -3.2%
inhibition [24]: -4.3%
inhibition [25]: 30.8%
inhibition [26]: -10%
inhibition [27]: -0.5%
inhibition [28]: 34.6%
inhibition [29]: 23.4%
inhibition [30]: 23.7%
inhibition [31]: 20.6%
inhibition [32]: 44.9%
inhibition [33]: 31.8%
inhibition [34]: 34.1%
inhibition [35]: 20.4%
inhibition [36]: 16.5%
inhibition (Homo sapiens): 1.1%
Ki [37]: > 10 µM
Ki [38]: > 10 µM
Ki [39]: > 10 µM
Efficacy [40]: 0.5%
IC50 [41]: 0.0427 µM
EC50 [42]: > 10 µM
EC50 [43]: 0.000724 µM
EC50 [44]: > 10 µM
EC50 [45]: 0.00398 µM
inhibition [46]: 8.9%
Structure (SMILES): O=C(NC1CCCCC1)N1OCC2CSc3ccc(F)cc3C21 (stereo unspecified)

inhibition [2]: 92%
inhibition [3]: 34.9%
Ki [4]: > 10 µM
Ki [5]: 0.489 µM
Ki [6]: > 10 µM
Structure (SMILES): CCCCNC(=O)N1OCC2CSc3ccc(F)cc3C21 (stereo unspecified)

inhibition [2]: 93%
inhibition [3]: 37.4%
Ki [4]: > 10 µM
Ki [5]: 0.384 µM
Ki [6]: > 10 µM
Structure (SMILES): CCCNC(=O)N1OCC2CSc3ccc(F)cc3C21 (stereo unspecified)

inhibition [1]: 2.2%
inhibition [2]: 89.3%
inhibition [3]: 55.4%
Ki [4]: > 10 µM
Ki [5]: 0.569 µM
Ki [6]: > 10 µM
Structure (SMILES): CC(C)NC(=O)N1OCC2CSc3ccc(F)cc3C21 (stereo unspecified)
